# In publication PMC7563358, “Prolonging the Half-Life of Histone Deacetylase Inhibitor Belinostat via 50 nm Scale Liposomal Subcutaneous Delivery System for Peripheral T-Cell Lymphoma” (Cancers, 2020):
# Read-outs that look alike come from different tables or passages of the source.
# How the values were obtained:
# [1] = cited from earlier work
# [2] = In vitro release by dialysis method with fitting to release models; type: physicochemical
# Procedure: An in vitro release study was performed using a dialysis method. Dialysis bags with a molecular-weight cutoff of 6000–8000 Da (pore size 1.8 nm; Orange Scientific, Braine-l’Alleud, Belgium) were soaked with distilled deionized water for 12 h before the experiment. Dialysis bags containing SN38-loaded liposomes, or SN38 solution, were subsequently incubated in flasks containing 15 mL medium (phosphate buffered saline/ethanol 1:1 v/v) in a 37 °C water bath. At appropriate intervals, 500 μL aliquots of the medium were withdrawn for analysis and immediately replaced with an equal volume of fresh medium. Release kinetics were investigated using different models, including zero-order, first-order and Higuchi kinetics. Correlation coefficients and each release equation were calculated from the respective plots.
# [3] = In vitro cytotoxicity of PBMCs; type: cell-based; conditions: male, human, peripheral blood mononuclear cells (PBMCs); 10 μM of belinostat
# Procedure: The cutaneous T-cell lymphoma cell line (HuT-78) was purchased from the Bioresource Collection and Research Center (BCRC, Hsinchu, Taiwan). HuT-78 cells were incubated in 79% Iscove’s modified Dulbecco’s medium (IMDM) with 20% FBS and 1% liquid penicillin–streptomycin and kept in a humidified atmosphere containing 5% CO2 at 37 °C. HuT-78 cells were seeded on 96 well culture plates at a cell density of 1.5 × 10^5 cells per well. After overnight incubation, the medium was replaced with fresh medium containing belinostat free drug and belinostat-loaded liposomal formulations at final concentrations of 0.05, 0.1, 0.5, 1, 5 and 10 μM for 72 h. […] The absorbance was read at 450 nm by an enzyme-linked immunosorbent-assay reader (BioTek Epoch; Thermo Fisher Scientific, Waltham, MA, USA) to measure the quantity of surviving cells. IC50 was calculated using a four-parameter logistic function standard curve analysis of the dose response. The cell cytotoxicity was calculated using the following equation:(2) Cell viability %= ODsample−ODblank/ODcontrol−ODblank×100 % where OD denotes the optical density, ODcontrol represents 100% survival, and ODblank represents no cells.
# Human peripheral blood mononuclear cells (PBMCs) were isolated from the peripheral blood from a healthy volunteer. […] After overnight incubation, the cytotoxicity assay was evaluated. […]
# [4] = In vivo pharmacokinetics after subcutaneous administration; conditions: Balb/c mice, single dose 0.333 mg/g
# Procedure: The in vivo pharmacokinetic study was performed on healthy male BALB/c mice (weight: 16–20 g) obtained from the Laboratory Animal Center of the National Science Council, Taipei, Taiwan. All animal experiments were conducted in accordance with institutional guidelines and approved by the Animal Care and Use Committee of Kaohsiung Medical University, Kaohsiung, Taiwan (KMUIACUC-107146). All animals were starved overnight prior to the experiments.
# BALB/c mice were anesthetized by halothane vapor with a vaporizer system. Mice were randomly divided into four groups, including the control group. Belinostat was dissolved in a mixture of 10% DMSO, 10% Cremophor EL, 80% water and a series of liposomal formulations (PC group, PS group, and PC/PS mixture group). It was then administered by subcutaneous injection with a dose of 0.33 mg/g. At time intervals of 5, 10 and 30 min and 1, 2, 3 and 4 h, 100 μL tail vein blood samples were collected in heparin-containing tubes (Vacutainer; BD, Franklin Lakes, NJ, USA) and immediately centrifuged at 3000× g for 10 min. The plasma was collected and stored at −20 °C. Mice were killed at the final time point and liver, spleen, lungs and kidneys were collected, washed with PBS and stored at −20 °C.
# Plasma samples (40 μL) were mixed with 20 μL of internal standard solution (carbamazepine […]) and 1000 μL of methanol was added to induce protein precipitation. The mixture was centrifuged at 3000× g for 10 min and the supernatant was evaporated under vacuum for 2 h. The final dry residue was resuspended in methanol and analyzed by HPLC. Organs were homogenized in 1 mL PBS at 17,800 rpm for 30 s. Subsequently, following the same process, homogenized organs were mixed with internal standard solution and acetonitrile and analyzed by HPLC.
# Correlation coefficients for the pharmacokinetic compartmental model were calculated and predicted using Phoenix WinNonlin V8.1 software (Certara, St. Louis, MO, USA). The area under the concentration–time curve (AUC0–∞) was calculated using the trapezoidal rule. Half-life (T½) and the clearance (Cl), volume of distribution (Vd), absorption rate (Ka) and elimination rate (Ke) were also calculated by software.
# [5] = pH 7.4; cited from earlier work
# HuT-78 cells = assay: Cell cytotoxicity (CCK-8) on HuT-78; type: cell-based; conditions: Homo sapiens, HuT78; HuT-78, 72 h, CCK-8, n = 6
# Procedure: The cutaneous T-cell lymphoma cell line (HuT-78) was purchased from the Bioresource Collection and Research Center (BCRC, Hsinchu, Taiwan). HuT-78 cells were incubated in 79% Iscove’s modified Dulbecco’s medium (IMDM) with 20% FBS and 1% liquid penicillin–streptomycin and kept in a humidified atmosphere containing 5% CO2 at 37 °C. HuT-78 cells were seeded on 96 well culture plates at a cell density of 1.5 × 10^5 cells per well. After overnight incubation, the medium was replaced with fresh medium containing belinostat free drug and belinostat-loaded liposomal formulations at final concentrations of 0.05, 0.1, 0.5, 1, 5 and 10 μM for 72 h. Cells were washed with PBS and reacted with 10 μL Cell Counting Kit-8 (CCK-8, Dojindo, Kumamoto, Japan) for 2 h. The absorbance was read at 450 nm by an enzyme-linked immunosorbent-assay reader (BioTek Epoch; Thermo Fisher Scientific, Waltham, MA, USA) to measure the quantity of surviving cells. IC50 was calculated using a four-parameter logistic function standard curve analysis of the dose response. The cell cytotoxicity was calculated using the following equation:(2) Cell viability %= ODsample−ODblank/ODcontrol−ODblank×100 % where OD denotes the optical density, ODcontrol represents 100% survival, and ODblank represents no cells.
# [6] = In vivo toxicity: complete blood count and liver function markers; conditions: balb/c mice, subcutaneous, 0.333 mg/g, four hours after treatment
# Procedure: BALB/c mice were administered with subcutaneous injections with doses of 0.33 mg/g of belinostat free drug and belinostat-loaded liposomal formulations. […] Blood was analyzed for number of erythrocytes, platelets (Plt) and total white blood cells using an automated blood analyzer (XT-1800i; Sysmex, Kobe, Japan). Hemoglobin, red blood cells and hepatic function were also analyzed. Reference values were obtained from Charles River Laboratory. ALT and AST were also evaluated.
# [7] = design: method as in PMID 26921086; conditions: cited from earlier work
smiles,measurement,setting,value
"O=C(/C=C/c1cccc(S(=O)(=O)Nc2ccccc2)c1)NO [belinostat, Belinostat]",Patients with low platelet count,[1],10–29%
same,Patients with low red blood cell counts,[1]; intravenous (IV) infusion over 30 min,more than 30%
same,Time until release completely exhausted,[2],≤ 4 h
same,Initial burst release,[2]; within 2 h,80%
same,"viability at 72 h, 10 µM",[3],20%
same,Cl,[4]; n = 3,404.50 ± 138.35 L/h/kg
same,Ka (absorption rate),[4]; n = 3,5.06 ± 2.00 h⁻¹
same,Vd,[4]; n = 3,1735.75 ± 414.86 L/kg
same,AUC(0-inf),"[4]; male, mouse, plasma, sc, n = 3",17500 ± 5990 ng·h/mL
same,Cmax,"[4]; male, mouse, plasma, sc, n = 3",3390 ± 740 ng/mL
same,Tmax,"[4]; male, mouse, plasma, sc, n = 3",0.69 ± 0.31 h
same,half-life,"[4]; male, mouse, plasma, sc, n = 3",3.29 ± 1.84 h
same,k el,"[4]; male, mouse, plasma, sc, n = 3, read-out: Ke (elimination rate) (converted)",6.94e-05 s⁻¹
same,Solubility,[5],80 µg/mL
same,IC50,HuT-78 cells,1800 ± 160 nM
same,ALT,[6],125 ± 4.57 U/L
same,Gra,[6],13.47 ± 3.21%
same,Hb,[6],13.63 ± 2.16 g/dL
same,Hct,[6],39.58 ± 3.80%
same,Lym,[6],78.21 ± 6.56%
same,Mon,[6],10.95 ± 2.52%
same,Plt count,[6],230 ± 45.72 10^9/L
same,RBC count,[6],9.29 ± 1.28 10^12/L
same,ST,[6],290 ± 34.48 U/L
same,WBC count,[6],3.42 ± 0.67 10^9/L
same,half-life,[7],1.1 h
